In publication PMC10644391, “Targeted Reversible Covalent Modification of a Noncatalytic Lysine of the Krev Interaction Trapped 1 Protein Enables Site-Directed Screening for Protein–Protein Interaction Inhibitors” (ACS Pharmacology & Translational Science, 2023):
Values joined by “and” are separate entries in the source; they are usually repeats but may differ in a detail not shown here. Equal entries are not always repeated.

Assays:
HEG1-KRIT1 PPI [1] = target: T1, HEG1-KRIT1 PPI (Homo sapiens, UniProt O00522); test: HEG1-KRIT1 PPI fluorescence polarization (FP) time-resolved assay; format: biochemical; conditions: means ± SD, n = 3; for IC50: fluorescence polarization assay after 4 h of incubation; for HEG1-KRIT1 PPI Assay kon / koff: global fit across six or more inhibitor concentrations; for Ki: global fit, unit in Figure 2E, read-out: HEG1-KRIT1 PPI Assay Ki (koff/kon)
T1 construct: a recombinant FERM domain (residues 417–736) of KRIT1; made in house; host or cells: E. coli
T1 sequence (O00522 417-736): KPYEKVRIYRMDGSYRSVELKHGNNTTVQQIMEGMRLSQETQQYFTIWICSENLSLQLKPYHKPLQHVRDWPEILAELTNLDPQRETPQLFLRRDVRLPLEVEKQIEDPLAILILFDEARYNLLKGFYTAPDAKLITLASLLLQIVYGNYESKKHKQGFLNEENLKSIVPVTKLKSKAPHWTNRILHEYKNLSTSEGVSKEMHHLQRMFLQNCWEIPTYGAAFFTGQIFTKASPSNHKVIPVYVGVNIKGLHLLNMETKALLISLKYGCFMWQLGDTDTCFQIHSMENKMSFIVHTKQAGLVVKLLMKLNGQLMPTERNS
Protocol: To evaluate the binding kinetics of HNA inhibitors, a fluorescence polarization (FP) time-resolved assay that uses a recombinant FERM domain (residues 417–736) of KRIT1 and a fluorescence-tagged HEG1 cytoplasmic tail (Cy5-HEG1 7-mer peptide) was developed (Supporting Information). Using HNA as a test compound, the FP data, expressed as millipolarization (mP) units, were obtained every 10 min over the course of 4–7 h. […] Thus, for practical purposes, a 4-h incubation time was established as the standard assay time for non-kinetic IC50 evaluations.
Fluorescence Polarization Assay and Optimization
The KRIT1 FERM domain (residues 417-736) was cloned into plasmid and recombinantly expressed in E. coli as previously described,1 while the Cy5-HEG1 7- mer peptide bearing the Cy5 dye as fluorescent probe was prepared by and purchased from GenScript (New Jersey, US). HEPES- buffered saline (HBS) buffer was supplemented (0.01%) with detergent Triton X -100 to minimize protein adsorption to the microplate. The assay was setup in a 96-well plate plated with 80 nM KRIT1, 4 nM Cy5- HEG1 probe, and either non-tagged HEG1 peptide or HNA as inhibitor (in 5% DMSO). To account for background fluorescence that could interfere with the assay, background wells with only test compound and Cy5 -HEG1 probe (no KRIT1) were also plated. The FP data, expressed as millipolarization (mP) units, were obtained […]
course of 4-7 hours (for kinetic characterization) using a Tecan Spark® Multimode Microplate Reader. The background mP (no KRIT1) was subtracted from mP to account for background fluorescence. All assays were done in triplicates.
Several FP assay conditions were optimized. First, the HEG1 probe engagement of KRIT1 was examined and its interaction was determined to be rapid equilibrium, thus any observed time dependance in response when an inhibitor displaces the probe is the result of inhibitor exchange kinetics and not that of the probe. Next, the affinity of KRIT1 for the probe (Kd) was examined by following the change in polarization signal as a function of a matrix of five probe concentrations and four KRIT1 concentrations (Figure S1B ). A global fit of equation 3 to polarization responses of the inhibitor vs KRIT1 concentration […]
even after 7 hours of incubation. For practical purposes, we have chosen 4 hours as our standard incubation time since it appeared that most of the inhibition has been reached at this time point. The kinetic characterization of HNA as a HEG1- KRIT1 inhibitor will be discussed in greater detail in the kinetic section […]
values to those obtained from the flow cytometry assay. Finally, to assess the robustness of the FP assay, […]
a robust assay) representing an excellent assay with clear differences between positive and negative controls.2 Evaluation of HEG1-KRIT1 inhibitors prior to the optimization of the FP assay were done using flow cytometry, while subsequent compounds were evaluated using the FP assay. All subsequent assay plates included HNA as comparison and control.
Figure S1. Optimization of fluorescence polarization (FP) assay.
HEG1-KRIT1 inhibition. (B) Optimization of KRIT1 protein and Cy5 -HEG1 probe concentrations. Dose-response curve of HNA obtained via fluorescence polarization (C) and flow cytometry (D) assays show […]
All assays were tested in technical duplicates or triplicates in at least 2 different

[2] = pKa by potentiometric titration (Sirius T3); format: physicochemical; conditions: potentiometric titrations, means ± SD of three titrations
[3] = HEK293 cytotoxicity, resazurin cell viability assay; format: cell-based; conditions: human, HEK293 cells, means ± SD, n = 3
Protocol: Maintenance of HEK293 Cells. HEK293 cell lines (American Type Culture Collection (ATCC)) were cultured in Dulbecco's Modified Eagle Medium (DMEM, Invitrogen) supplemented with 10% heat-inactivated fetal bovine serum (FBS, Gibco) and penicillin-streptomycin (1%). Cells were kept at 37 °C and 5% CO2, and were passaged every 72 hours.
Resazurin Cell Viability Assay. The cytotoxicity in HEK293 cells were determined using a resazurin cell viability assay. Test compounds in DMSO were diluted to 100x desired final assay concentration (maximum concentration of 100 µM) in eight-point dose response. 1 µL of test compounds were plated in a 96-well clear bottom tissue culture microplate. 49 µL of cell culture media was added to each well. Cells were diluted to 4 x 10^5 cells/mL, and 50 µL of this cell suspension was seeded to each well for a total of 2 x 10^4 cells/well. The assay plate was kept at 37 °C and 5% CO 2 for either 4 or 48 hours. At the end of the incubation time, 20 µL of 0.5 mM resazurin sodium salt (Alfa Aesar) solution in PBS was added to each well. The assay plates were incubated further at 37 °C for 2 hours. Fluorescence was measured at 531 nm and 595 nm excitation and emission wavelengths, respectively, using a 2104 EnVision® multilabel plate reader. CC50 values were obtained using sigmoidal curved generated with Prism GraphPad (San Diego, CA). SD values are reported as the standard deviation of the CC50 values of 3 biological replicates. All

HEG1-KRIT1 PPI [4] = conditions: prior SAR studies; read-out: HEG1-KRIT1 PPI inhibition IC50; cited from earlier work
KLF2 = KLF2 gene expression in HUVECs (RT-qPCR); format: cell-based, Human; conditions: HUVEC, 4-h incubation, relative to inactive control (2-hydroxy-1-naphthoic acid), 10-50 µM
Protocol: (§1) Finally, to confirm target engagement in cell-based conditions, selected HNA derivatives (i.e., 2, 3, and 5) were tested in a functional assay that specifically looks at the downstream effects of inhibiting the interaction between HEG1 and KRIT1, using qPCR. […] Here, the ability of compound 2 and HNA derivatives 3 and 5 to upregulate the same transcription factors in HUVEC after 4 h was measured.
(§2) PCR experiments in endothelial cells
(§3) Cell Culture. Human umbilical vein endothelial cells (HUVECs, Lonza) from passages 5 to 7 were grown on fibronectin‐coated 6-well plates (Corning) in complete EGM‐2 media (Lonza). HNA compounds 2, 3 and 5 were used from stocks of 10 mM in DMSO, which were placed on a rotating block at room temperature for 30 min before being diluted for use in cell culture. Compounds were used at the concentrations indicated (10-50µM) in HUVEC medium and added to cell culture wells for 4 hours. Control cells were treated with the same concentration of either DMSO (vehicle) or the non-active compound V for the same duration. Cells were maintained in a humidified incubator at 37°C and 5% CO2.
(§4) RT-qPCR. HUVECs (Lonza) using TRIzol reagent (Thermo Fisher Scientific) and the Quick-RNA MiniPrep Kit (Zymo Research) according to the manufacturer’s instructions. cDNA was transcribed from a total of 1 µg RNA per sample using qScript™ cDNA SuperMix (QuantaBio) according to the manufacturer’s protocol. KAPA SYBR FAST qPCR master mix (Roche) was used on a CFX Connect Real-Time PCR Detection System (BioRad) to determine the relative levels of human gene trascripts. The following primer sets were used: KLF2 (forward) AGACCACGATCCTCCTTGA and (reverse) […]
(§5) […]; KLF4, (forward) […] and (reverse)
(§6) ; and GAPDH (forward) […] and
(§7) (reverse) […] used as internal control. The 2−ΔΔCT method was used to analyze relative changes between vehicle control and test compounds for each data set.

KLF4 = KLF4 gene expression in HUVECs (RT-qPCR); format: cell-based, Human; conditions: HUVEC, 4-h incubation, relative to inactive control (2-hydroxy-1-naphthoic acid), 10-50 µM
Protocol: as §1, §2, §3, §4, §5, §6, §7

Row | Structure (SMILES) | IC50 (HEG1-KRIT1 PPI [1]) [µM] | HEG1-KRIT1 PPI Assay kon (HEG1-KRIT1 PPI [1]) | koff (HEG1-KRIT1 PPI [1]) [s⁻¹] | Ki (HEG1-KRIT1 PPI [1]) [µM] | pKa [2] | CC50 at 48 h [3] [µM] | IC50 (HEG1-KRIT1 PPI [4]) [µM] | KLF2 mRNA expression (KLF2) | KLF4 mRNA expression (KLF4)
1 | O=Cc1c(O)ccc2cc(Cl)ccc12 [Compound 8] | 1.83 ± 0.82 | 35.6 ± 5 M⁻¹ s⁻¹ | 2.97e-05 | 0.84 ± 0.33 | 7.3 ± 0.06 | ~100 | – | – | –
2 | CN(C)c1ccc2c(C=O)c(O)ccc2c1 [Compound 11] | 12.1 ± 4.61 | 9.64 M⁻¹ s⁻¹ and 9.64 ± 2.08 M⁻¹ s⁻¹ | 0.00011 | 11.4 ± 4.08 | – | > 100 | – | – | –
3 | O=Cc1c(O)ccc2cc(-c3c[nH]nn3)ccc12 [Compound 14] | 12 ± 1.09 | 4.58 M⁻¹ s⁻¹ and 4.58 ± 0.444 M⁻¹ s⁻¹ | 1.99e-05 | 4.35 ± 1.77 | 7.38 ± 0.12 | > 100 | – | – | –
4 | O=Cc1c(O)ccc2cc(-c3cccs3)ccc12 [Compound 4] | 0.47 ± 0.11 | 200 ± 30 M⁻¹ s⁻¹ | 0.000114 | 0.57 ± 0.14 | – | 33.9 ± 0.7 | – | – | –
5 | O=Cc1c(O)ccc2ccc(-c3cccs3)cc12 [Compound 16] | 0.24 ± 0.09 | 232 ± 40.8 M⁻¹ s⁻¹ | 7.28e-05 | 0.31 ± 0.09 | – | 31.4 ± 4.2 | – | – | –
6 | O=Cc1ccccc1O [salicylaldehyde, reference compound] | – | – | – | – | – | – | > 500 | – | –
7 | CC#Cc1ccc2c(C=O)c(O)ccc2c1 [Compound 12] | 1.42 ± 0.32 | 43.1 ± 5.83 M⁻¹ s⁻¹ | 4.36e-05 | 1.01 ± 0.29 | 7.02 ± 0.08 | ~100 | – | – | –
8 | O=Cc1c(O)ccc2cc(-c3ccco3)ccc12 [Compound 5] | 0.69 ± 0.11 | 108 ± 20.8 M⁻¹ s⁻¹ | 8.81e-05 | 0.82 ± 0.25 | 8.08 ± 0.08 | 37.1 ± 5.2 | – | significant elevations | significant elevations
9 | C=CCc1ccc2c(C=O)c(O)ccc2c1 [Compound 7] | 1.22 ± 0.43 | 50.8 ± 5 M⁻¹ s⁻¹ | 3.19e-05 | 0.63 ± 0.16 | 7.17 ± 0.09 | 33.9 ± 5.4 | – | – | –
10 | O=Cc1c(O)ccc2cc(OC(F)F)ccc12 [Compound 10] | 2.21 ± 0.68 | 29.7 ± 2.5 M⁻¹ s⁻¹ | 3.08e-05 | 1.03 ± 0.25 | 6.95 ± 0.12 | > 100 | – | – | –
11 | C=CCOc1ccc2c(C=O)c(O)ccc2c1 [Compound 9] | 2.75 ± 0.19 | 24.6 ± 1.81 M⁻¹ s⁻¹ | 2.29e-05 | 0.93 ± 0.24 | 7.34 ± 0.12 | 59.2 ± 12.9 | – | – | –
12 | O=Cc1c(O)ccc2cc(-c3ccccc3)ccc12 [Compound 13] | 0.79 ± 0.24 | 112 ± 23.9 M⁻¹ s⁻¹ | 7.28e-05 | 0.65 ± 0.24 | 6.76 ± 0.1 | 43.5 ± 9.4 | – | – | –
13 | O=Cc1c(O)ccc2cc(-c3ccsc3)ccc12 [Compound 15] | 1.18 ± 0.39 | 60.3 ± 7.5 M⁻¹ s⁻¹ | 5e-05 | 0.83 ± 0.2 | 7.75 ± 0.08 | 38.4 ± 6.1 | – | – | –
14 | C#Cc1ccc2c(C=O)c(O)ccc2c1 [Compound 3] | 0.65 ± 0.12 | 179 ± 26.1 M⁻¹ s⁻¹ | 0.000118 | 0.66 ± 0.17 | 6.81 ± 0.05 | > 100 | – | significant elevations | significant elevations
15 | O=Cc1c(O)ccc2ccc(-c3ccco3)cc12 [Compound 6] | 0.94 ± 0.12 | 52.8 ± 9.17 M⁻¹ s⁻¹ | 4.97e-05 | 0.94 ± 0.32 | 7.5 ± 0.02 | 41.2 ± 6.7 | – | – | –
